Tests used:
[1] = test system: APP-transfected SH-SY5Y cells; test: MTT assay, cell viability of APP-transfected SH-SY5Y cells; format: cell-based, human; conditions: 0.5, 1, 5, 10 and 20 μM, 4 hours, compared to the untreated APP group
Procedure: The human APPswe/ind gene under the transcriptional control of the SV40 promoter/enhancer linked to the pCAX mammalian expression vector was obtained from addgene; The gene was deposited in the APP reservoir by Dennis Solkoe (plasmid 30145). The plasmid was amplified by DH5alpha strain in LB medium containing 50 μg/ml of ampicillin. The plasmid was purified by using a Qiagen plasmid mini kit (Cat #12143) and digested with EcoRV restriction enzyme and confirmed. The human neuroblastoma cell line SHYSY5Y used in the present in vitro experiments was cultured in DMEM medium containing 10% fetal bovine serum and 1% penicillin-streptomycin antibiotic (stock solutions concentrations of 10,000 U and 10,000 μg/ml, respectively)).
SH-SY5Y cells and HT-22 cells were inoculated into a culture flask containing the medium, and cultured until reaching the confluency of 70% to 75%. The pCAX vector with the APPswe/ind gene was transfected for 48 hours by using Lipofectamine 3000 (Life technologies) according to the manufacturers instructions.
APPswe/ind transfected SH-SY5Y cells were treated with novel peptide for 4 hours, followed by 3-[4, 5-dimethylthiazol-2-yl]-2,5-diphenyl tetrazolium bromide (MTT) analysis and Western blot analysis.
MTT assay was performed to measure the survival rate of cells treated with various concentrations of adiponectin receptor-activating novel peptide (5AA1). The cells were inoculated at 1×10^5 cells/well in a 96-well plate containing 200 μl of Dulbecco's modified Eagle's medium (DMEM). After 70% of cell confluence, SH-SY5Y cells were treated with 0.5 μM, 1 μM, 5 μM, 10 μM, and 20 μM of adiponectin receptor-activating novel peptide, and then cultured for 4 hours. At the end of the treatment, MTT (5 mg/ml in PBS) was added to each well, and the plate was cultured at a temperature of 37° C. for 4 hours. The formazan dissolved in dimethyl sulfoxide (DMSO) was added to the well and the plate was stirred in the agitator for 10 to 20 minutes. Then, the absorbance was measured at a wavelength of 550 nm to 570 nm (L1) and 620 nm to 650 nm (L2) by using a scanning microplate reader.
The L2 absorbance was measured for cell residuals and well imperfections, and the corrected absorbance (Abs.=L1−L2) of each well was calculated from 100× the absorbance of treated well/absorbance of the control well, and was used to measure the cell viability.

APP/PS1 model mice = test: Morris water maze test in APP/PS1 model mice; format: in vivo; conditions: APP/PS1 model mice treated, compared to APP/PS1 model mice
Procedure: Male C57BL/6J wild type mice and double transgenic B6.Cg-Tg (APPswe, PSENdE9) 85Dbo Mmjax (APP/PS1) AD-model mice were obtained from Jackson Laboratories (Bar Harbor, Me., USA). The brains of the double transfected mice express Swedish mutation-containing chimeric mouse-human amyloid precursor protein (Mo/HuAPP695swe) and mutant human presenilin 1 protein (PS1-dE9). The mice were fed with an unlimited supply of food and water at an animal breeding ground of a university at a temperature of 23° C., at the relative humidity of 60±10% and in the black and light cycle of 12 h/12 h. […]
The Morris Underwater Maze Test System was constructed as a circular water tank with a diameter of 100 cm and a height of 40 cm containing 15.5 cm depth of water (temperature of 23±1° C.) which was opaque with white ink added. […] The delay time for escaping from the water maze (the time to find the hidden escape platform) was calculated for each trial. […] For the probe experiment, the platform was removed, each mouse was allowed to freely swim for 60 seconds, the amount of time the mouse spent in the target quadrant was measured, and the number of platform positions the mouse passed by (where the platform was located during the hidden platform training). […] All data were recorded by using video-tracking software (SMART, Panlab Harward Apparatus, Bioscience Company, Holliston, Mass., USA).

RGPCG (adiponectin receptor-activating peptide) [5AA1]
cell viability [1]: concentration-dependently increased | time for staying where the platform was located (probe test) (APP/PS1 model mice): increased
